Test system: radiation induced gastrointestinal tract injury
Experiment: Radiation-induced gastrointestinal tract injury in mice, mucosal alteration histological scoring
Type: in vivo, male C57BL/6 mice
Conditions: enemas 75 mg/kg body weight for 9 days from day of irradiation; Cs-137 12 Gy to pelvic area; versus saline enemas
Description: Fourteen male C57BL/6 mice were treated with enemas containing either 75 mg/kg body weight of Mesna or saline as a control for 9 days post-exposure to Cs-137 radiation (12 Gy) in the pelvic area. Radiation Injury Histological Scoring (0=no change, 3=severe change) was employed to assess treatment efficacy. The present invention is based in part on the unexpected finding that the rectal administration of Mesna to mice experiencing radiation induced gastrointestinal tract injury, reduces symptoms of the condition. In the present study, 14 male C57BL/6 mice were randomly divided into two groups—treatment group and control group. The pelvic area (containing the ano-rectal part of the intestine) of each mouse was exposed to a Cs-137 source and irradiated over 2 minutes at a rate of 6 Gy/min (a 12 Gy dose). Starting from the day of irradiation and for a period of 9 days, mice in the treatment group received enemas containing Mesna at a dose of 75 mg/kg body weight. Animals in the control group received saline enemas as a control. Animals were sacrificed nine days post irradiation and gross necropsy of the anus, rectum and colon was performed and documented by high resolution color pictures. […]

Q: How did the “mucosal alteration score (0=no change, 3=severe change)” value turn out when `O=S(=O)([O-])CCS.[Na+]` [Mesna, sodium 2-sulfanylethanesulfonate] was run?
A: significantly reduced

— patent publication US9937136B2, “Methods for treating radiation induced gastrointestinal tract injury” (RDD PHARMA LTD., priority 2013, dated 2018)
